{"source": "patent US20090029355A1", "about": "“Abnormalities of Phosphatase 2A (PP2A) for Diagnosis and Treatment of Alzheimer's Disease” (priority 2004, published 2009)", "key": {"[1]": {"system": "Erk1/2 phosphorylation in AC cells", "assay": "Erk1/2 phosphorylation on Western blots in AC fibroblasts", "format": "cell-based, human", "details": "about 10 nM OA, about 10 nM BK, about 10 min", "procedure": "(§1) After serum-starving overnight, cells are treated as such: 1) BK treatment for about 10 min, 2) pretreatment with about 10 nM OA for about 15 min followed by BK treatment and another dose of OA for about 10 min. Reactions are terminated, cells are lysed in a lysis buffer, and the extent of Erk1/2 phosphorylation and levels of the total Erk1/2 are determined using Western blots. After normalizing with signals of the total Erk1/2, the ratio of BK-stimulated Erk1/2 phosphorylation in the presence and absence of OA is calculated. […]\n(§2) Erk1/2 phosphorylation from different treatments was determined on Western blots using an anti-phospho-Erk1/2 antibody (Cell Signaling Technology), the total amount of Erk1/2 protein loaded on the SDS gel was determined by an anti-regular Erk1/2 antibody (Upstate Biotechnology), and was used to normalize the detected phospho-Erk1/2 signals.\n(§3) (1) Quantitative PCR values for PP2A mRNA in each sample of 19 AC and 19 AD cell lines were normalized by those of GPDH in the same sample. […] The densitometric values for PP2A were normalized by those of annexin 11 and quantified with UN-SCAN-IT software (Silk Scientific, Inc.) (3) To assess Erk1/2 phosphorylation, ratios for phospho-Erk1/2 over those of the total Erk1/2 were calculated. […]"}, "[2]": {"system": "Erk1/2 phosphorylation in AD cells", "assay": "Erk1/2 phosphorylation on Western blots in AD fibroblasts", "format": "cell-based, human", "details": "about 10 nM OA, about 10 nM BK, about 10 min", "procedure": "as §1, §2, §3"}}, "note": "Entries after “also recorded” stand apart in the source; their conditions may differ.", "data": [{"smiles": "C=C1[C@@H](O)[C@@H]2O[C@]3(CC[C@H](/C=C/[C@@H](C)[C@@H]4CC(C)=C[C@@]5(O[C@H](C[C@@](C)(O)C(=O)O)CC[C@H]5O)O4)O3)CC[C@H]2O[C@@H]1[C@@H](O)C[C@H](C)[C@H]1O[C@@]2(CCCCO2)CC[C@H]1C", "note": "[OA, okadiac acid]", "values": [{"measurement": "Erk1/2 dephosphorylation after BK stimulation in the presence of OA", "setting": "[1]", "result": "inhibited Erk1/2 dephosphorylation; also recorded: significantly inhibited"}, {"measurement": "BK-stimulated Erk1/2 phosphorylation on addition of OA", "setting": "[2]", "result": "did not further increase Erk1/2 phosphorylation"}]}]}
